According to ChEMBL document CHEMBL5634089, “Design, synthesis and evaluation of 2-pyrimidinylindole derivatives as anti-obesity agents by regulating lipid metabolism” (Eur J Med Chem, 2023):
Values after ≈ are worked out from the molar mass of the structure shown.

Assays:
3T3-L1 [1] = assay: Anti-adipogenic activity in mouse 3T3-L1 cells assessed as lipid-lowering activity at 1 uM measured after 9 days by Oil Red O staining based microplate reader analysis relative to control; type: functional; conditions: time 9 day
3T3-L1 [2] = assay: Anti-adipogenic activity in mouse 3T3-L1 cells assessed as lipid-lowering activity measured after 9 days by Oil Red O staining based microplate reader analysis; type: functional, cell-based; conditions: 3T3-L1, 216 h
[3] = Cytotoxicity against mouse 3T3-L1 cells assessed as reduction in cell viability incubated for 24 hrs by Sulforhodamine B assay; type: toxicity, cell-based
[4] = Therapeutic index, ratio of IC50 for cytotoxicity against mouse 3T3-L1 cells to EC50 for anti-adipogenic in mouse 3T3-L1 cells; type: toxicity, cell-based; conditions: read-out: Ratio IC50/EC50
[5] = Half life in Sprague-Dawley rat at 2 mg/kg, iv administered for 24 hrs by LC-MS/MS analysis; type: ADME, organism-based; conditions: in vivo
[6] = AUC (0 to t) in Sprague-Dawley rat at 2 mg/kg, iv administered for 24 hrs by LC-MS/MS analysis; type: ADME, organism-based; conditions: in vivo
[7] = AUC (0 to infinity) in Sprague-Dawley rat at 2 mg/kg, iv administered for 24 hrs by LC-MS/MS analysis; type: ADME, organism-based; conditions: in vivo
[8] = MRT (0 to t) in Sprague-Dawley rat at 2 mg/kg, iv administered for 24 hrs by LC-MS/MS analysis; type: ADME, organism-based; conditions: in vivo
[9] = Apparent volume of distribution during terminal phase in Sprague-Dawley rat at 2 mg/kg, iv administered for 24 hrs by LC-MS/MS analysis; type: ADME, organism-based; conditions: in vivo
[10] = Half life in Sprague-Dawley rat at 5 mg/kg, po administered for 24 hrs by LC-MS/MS analysis; type: ADME, organism-based; conditions: in vivo
[11] = Tmax in Sprague-Dawley rat at 5 mg/kg, po administered for 24 hrs by LC-MS/MS analysis; type: ADME, organism-based; conditions: in vivo
[12] = Cmax in Sprague-Dawley rat at 5 mg/kg, po administered for 24 hrs by LC-MS/MS analysis; type: ADME, organism-based; conditions: in vivo
[13] = AUC (0 to t) in Sprague-Dawley rat at 5 mg/kg, po administered for 24 hrs by LC-MS/MS analysis; type: ADME, organism-based; conditions: in vivo
[14] = AUC (0 to infinity) in Sprague-Dawley rat at 5 mg/kg, po administered for 24 hrs by LC-MS/MS analysis; type: ADME, organism-based; conditions: in vivo
[15] = MRT (0 to t) in Sprague-Dawley rat at 5 mg/kg, po administered for 24 hrs by LC-MS/MS analysis; type: ADME, organism-based; conditions: in vivo
[16] = Apparent volume of distribution during terminal phase in Sprague-Dawley rat at 5 mg/kg, po administered for 24 hrs by LC-MS/MS analysis; type: ADME, organism-based; conditions: in vivo, read-out: Vz/F
[17] = Apparent oral clearance in Sprague-Dawley rat at 5 mg/kg, po administered for 24 hrs by LC-MS/MS analysis; type: ADME, organism-based; conditions: in vivo
[18] = Oral bioavailability (0 to t) in Sprague-Dawley rat at 5 mg/kg administered for 24 hrs by LC-MS/MS analysis; type: ADME, organism-based; conditions: in vivo
[19] = Oral bioavailability (0 to infinity) in Sprague-Dawley rat at 5 mg/kg administered for 24 hrs by LC-MS/MS analysis; type: ADME, organism-based; conditions: in vivo
[20] = Aqueous solubility of compound incubated for 24 hrs by HPLC analysis; type: physicochemical; conditions: aqueous medium

`CCc1cc(NCCN2CCCC2)nc(-c2[nH]c3ccccc3c2C(C)=O)n1` showed an Activity (3T3-L1 [1]) of 58.5%.

`CC(=O)c1c(-c2ncc(F)c(NCCN3CCCC3)n2)[nH]c2ccccc12` showed an Activity (3T3-L1 [1]) of 102.6%, an EC50 (3T3-L1 [2]) of 0.18 µM and an IC50 at 24 h [3] of 37.4 µM. The selectivity ratio [4] was 208.

In the case of `CC(=O)c1c(-c2nc(C)cc(NCCN3CCCC3)n2)[nH]c2ccccc12`, the Activity (3T3-L1 [1]) is reported as 98.3%, the EC50 (3T3-L1 [2]) is reported as 0.089 µM and the IC50 at 24 h [3] is reported as 18.1 µM. The selectivity ratio [4] was 202.

With `CC(=O)c1c(-c2nc(NCCN3CCCC3)c3cccnc3n2)[nH]c2ccccc12` the Activity (3T3-L1 [1]) was 16.8%.

`CCc1cc(NCCCN(C)C)nc(-c2[nH]c3ccccc3c2C(C)=O)n1` showed an Activity (3T3-L1 [1]) of 73.8%.

With `CC(=O)c1c(-c2nc(NCCN(C)C)c3cccnc3n2)[nH]c2ccccc12` the Activity (3T3-L1 [1]) was 22.4%.

For `CC(=O)c1c(-c2nc3c(c(NCCN(C)C)n2)CNCC3)[nH]c2ccccc12`, the Activity (3T3-L1 [1]) was 25.1%.

For `COc1cnc(-c2[nH]c3ccccc3c2C(C)=O)nc1NCCCN1CCCC1`, the Activity (3T3-L1 [1]) was 49.7%.

`CC(=O)c1c(-c2nc(NCCCN(C)C)cc(-c3ccc(C(C)(C)C)cc3)n2)[nH]c2ccccc12` showed an Activity (3T3-L1 [1]) of 20.5%.

`CC(=O)c1c(-c2nc(C)cc(NCCCN(C)C)n2)[nH]c2ccccc12` showed an Activity (3T3-L1 [1]) of 99.8%, an EC50 (3T3-L1 [2]) of 0.225 µM and an IC50 at 24 h [3] of 33.9 µM. For the same molecule, the selectivity ratio [4] was 151.

`COc1cnc(-c2[nH]c3ccccc3c2C(C)=O)nc1NCCCN(C)C` gave an Activity (3T3-L1 [1]) of 54.4%.

Molecule `CC(=O)c1c(-c2nc(NCCN(C)C)c3ccccc3n2)[nH]c2ccccc12` has an Activity (3T3-L1 [1]) of 100.5%, an EC50 (3T3-L1 [2]) of 0.078 µM and an IC50 at 24 h [3] of 6.31 µM. The selectivity ratio [4] was 81.

For `CC(=O)c1c(-c2nccc(NCCCN(C)C)n2)[nH]c2ccccc12`, the Activity (3T3-L1 [1]) was 79.5%.

Work on `CC(=O)c1c(-c2nc(O)cc(NCCCN(C)C)n2)[nH]c2ccccc12` yielded an Activity (3T3-L1 [1]) of -3.1%.

For `CC(=O)c1c(-c2nc(NCCN3CCCC3)cc(-c3ccccc3)n2)[nH]c2ccccc12`, the Activity (3T3-L1 [1]) was 5.9%.

Molecule `CC(=O)c1c(-c2nc(NCCCN(C)C)cc(C(F)(F)F)n2)[nH]c2ccccc12` has an Activity (3T3-L1 [1]) of 15.5%.

Work on `CC(=O)c1c(-c2ncc(F)c(NCCCN(C)C)n2)[nH]c2ccccc12` yielded an Activity (3T3-L1 [1]) of 58%.

Molecule `CC(=O)c1c(-c2ncc(C)c(NCCN3CCCC3)n2)[nH]c2ccccc12` has an Activity (3T3-L1 [1]) of 99.8%, an EC50 (3T3-L1 [2]) of 0.111 µM and an IC50 at 24 h [3] of 23.4 µM. It also gave a selectivity ratio [4] of 212.

With `CC(=O)c1c(-c2nc(NCCCN(C)C)cc(-c3cccnc3)n2)[nH]c2ccccc12` the Activity (3T3-L1 [1]) was 48.2%.

`CC(=O)c1c(-c2nccc(NCCN(C)C)n2)[nH]c2ccccc12` showed an Activity (3T3-L1 [1]) of 103.9%, an EC50 (3T3-L1 [2]) of 0.254 µM and an IC50 at 24 h [3] of 28.4 µM. The selectivity ratio [4] was 112.

For `CC(=O)c1c(-c2ncc(C)c(NCCCN(C)C)n2)[nH]c2ccccc12`, the Activity (3T3-L1 [1]) was 101.8%, the EC50 (3T3-L1 [2]) was 0.127 µM and the IC50 at 24 h [3] was 32.2 µM. It also gave a selectivity ratio [4] of 254.

`COc1cnc(-c2[nH]c3ccccc3c2C(C)=O)nc1NCCN1CCCC1` gave an Activity (3T3-L1 [1]) of 48.3%.

For `CC(=O)c1c(-c2nc(NCCN3CCCC3)c3ccccc3n2)[nH]c2ccccc12`, the Activity (3T3-L1 [1]) was 99.5%, the EC50 (3T3-L1 [2]) was 0.045 µM and the half-life [5] was 12.4 h. It also gave an IC50 at 24 h [3] of 8.49 µM, a selectivity ratio [4] of 190 and an AUC(0-t) at 24 h [6] of 603 ng·h/mL. For the same molecule, the AUC(0-inf) [7] was 749 ng·h/mL, the MRT last at 24 h [8] was 14 h and the Vz/F [9] was 47.8 L/kg. The half-life [10] was 6.5 h, the Tmax [11] was 1.2 h and the Cmax [12] was 63.7 ng/mL. The AUC(0-t) at 24 h [13] was 574 ng·h/mL, the AUC(0-inf) [14] was 616 ng·h/mL and the MRT last at 24 h [15] was 9.1 h. For the same molecule, the Vd/F [16] was 77.8 L/kg, the CL/F [17] was 137 mL/min/kg and the bioavailability [18] was 38.1%. The bioavailability [19] was 32.9% and the solubility at 24 h [20] was 8 µg/mL (≈ 20 µM).

Molecule `CC(=O)c1c(-c2nc(NCCN3CCCC3)cc(C(F)(F)F)n2)[nH]c2ccccc12` has an Activity (3T3-L1 [1]) of 54.4%.

For `CC(=O)c1c(-c2nc3c(c(NCCCN(C)C)n2)CCCC3)[nH]c2ccccc12`, the Activity (3T3-L1 [1]) was 28%.

For `CC(=O)c1c(-c2nc(NCCCN(C)C)c3ncn(C)c3n2)[nH]c2ccccc12`, the Activity (3T3-L1 [1]) was 99.9%, the EC50 (3T3-L1 [2]) was 0.309 µM and the IC50 at 24 h [3] was 57.7 µM. The selectivity ratio [4] was 187.

Work on `CC1=C(O)C(=O)C=C2C1=CC=C1[C@@]2(C)CC[C@@]2(C)[C@@H]3C[C@](C)(C(=O)O)CC[C@]3(C)CC[C@]12C` [CELASTROL] yielded an EC50 (3T3-L1 [2]) of 0.099 µM, an IC50 at 24 h [3] of 0.73 µM and a selectivity ratio [4] of 7.

In the case of `CC(=O)c1c(-c2nc(NCCCN(C)C)cc(-c3ccccc3)n2)[nH]c2ccccc12`, the Activity (3T3-L1 [1]) is reported as 26.9%.

Work on `CC(=O)c1c(-c2nc3c(c(NCCN4CCCC4)n2)CCCC3)[nH]c2ccccc12` yielded an Activity (3T3-L1 [1]) of 20.5%.

Molecule `CC(=O)c1c(-c2nc3c(c(NCCN(C)C)n2)COC3)[nH]c2ccccc12` has an Activity (3T3-L1 [1]) of 46.9%.

Molecule `CC(=O)c1c(-c2nc(C)c(C)c(NCCCN(C)C)n2)[nH]c2ccccc12` has an Activity (3T3-L1 [1]) of 92.1%, an EC50 (3T3-L1 [2]) of 0.509 µM and an IC50 at 24 h [3] of 30.4 µM. The selectivity ratio [4] was 60.

`CC(=O)c1c(-c2nc(NCCN3CCCC3)c3ncn(C)c3n2)[nH]c2ccccc12` showed an Activity (3T3-L1 [1]) of 99.5%, an EC50 (3T3-L1 [2]) of 0.295 µM and an IC50 at 24 h [3] of 65.5 µM. It also gave a selectivity ratio [4] of 222.
